Among the data in patent US12410171B2, “Tropomyosin receptor kinase (TRK) degradation compounds and methods of use” (Cullgen (Shanghai), Inc., priority 2020, dated 2025) are IC50 and percent degradation of TPM3-TRKA protein values, retold here.

Usually IC50 stands for the concentration that gives 50% inhibition.

The subject of one test is KM12 cells. Briefly: KM12 cell viability (CellTiter-Glo). It is filed as cell-based. The following applies: Homo sapiens. In outline:
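Three-day exposure of KM12 cells (5000/well, RPMI 1640 with 10% FBS, 37 °C, 5% CO2) to compound dilution series, 3-fold over 8 or 11 points (top 1000 nM in the 8-point format) or 2-fold over 12. CellTiter-Glo readout, with IC50 fitted by nonlinear least-squares regression.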
On the technique in general: Cellular ATP, detected with luciferase, serves as a proxy for viable cell number.

The next test addresses T1, TPM3-TRKA fusion protein (Homo sapiens, UniProt P04629).
T1 construct: The resulted chimeric proteins always retain the kinase domain of TRK proteins; TPM3 (fusion partner, N-terminal part of tropomyosin alpha-3, P06753); endogenous in cells; host or cells: KM12 colon cancer cells; the other entry of the earlier key: TPM3 (P06753, Tropomyosin alpha-3 chain)
In words: TPM3-TRKA fusion protein levels in KM12 cells (Western blot). It is filed as cell-based. The settings on record: read-out: Degradation (at 10 nM). In short, it runs like this: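 TPM3-TRKA levels were assessed by Western blot with chemiluminescent detection and band densitometry, after SDS-PAGE of BCA-normalized RIPA lysates. Before lysis, KM12 cells received DMSO, compounds or matched control compounds at concentrations including 0.1, 1, 10 and 100 nM and 0.4–30 nM. Exposures lasted 4 h, 8–16 h or 16 h.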
Background: In western blotting, separated proteins are transferred to a membrane and probed.

[1] abbreviates: 72 h, KM12 cell viability, CellTiter-Glo, three days treatment, read-out: IC50.
The mark [2] stands for this setting: 16 h, TPM3-TRKA degradation in KM12 cells at 10 nM compound, category of percentage degradation.

SMILES strings stand for the structures. Where two headings read alike, the source gives them in different places.

T1 sequence (P04629 with tags, fused parts or gaps): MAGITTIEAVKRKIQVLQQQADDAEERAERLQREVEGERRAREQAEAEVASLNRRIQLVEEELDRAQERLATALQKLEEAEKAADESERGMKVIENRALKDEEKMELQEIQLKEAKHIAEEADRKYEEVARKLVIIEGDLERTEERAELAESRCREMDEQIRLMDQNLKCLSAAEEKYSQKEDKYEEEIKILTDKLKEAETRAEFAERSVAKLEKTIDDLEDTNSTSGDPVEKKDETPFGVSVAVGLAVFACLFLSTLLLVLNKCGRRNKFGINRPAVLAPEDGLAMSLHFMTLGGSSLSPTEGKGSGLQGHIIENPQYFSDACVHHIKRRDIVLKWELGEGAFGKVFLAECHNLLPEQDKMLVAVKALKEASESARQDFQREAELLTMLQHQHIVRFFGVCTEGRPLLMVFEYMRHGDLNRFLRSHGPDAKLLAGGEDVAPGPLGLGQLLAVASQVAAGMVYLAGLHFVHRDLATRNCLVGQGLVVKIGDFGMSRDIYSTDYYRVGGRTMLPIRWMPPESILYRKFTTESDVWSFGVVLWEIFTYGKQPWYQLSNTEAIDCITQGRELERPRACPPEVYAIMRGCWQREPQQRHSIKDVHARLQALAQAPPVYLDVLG

As for `O=C1CCC(N2C(=O)c3ccc(N4CC(C(=O)N5CCN(c6cccc(-c7cnc8ccc(N9CCC[C@@H]9c9cccc(F)c9)nn78)n6)CC5)C4)cc3C2=O)C(=O)N1` (stereo partly drawn) [TR-211, 2-(2,6-dioxopiperidin-3-yl)-5-(3-(4-(6-(6-((R)-2-(3-fluorophenyl)pyrrolidin-1-yl)imidazo[1,2-b]pyridazin-3-yl)pyridin-2-yl)piperazine-1-carbonyl)azetidin-1-yl)isoindoline-1,3-dione], the IC50 in the test on KM12 cells (setting [1]) turned out to be 2 nM. Also, at TPM3-TRKA fusion protein (setting [2]), the percent degradation of TPM3-TRKA protein at 0.01 µM is above 80%.
`Cn1c(=O)n(C2CCC(=O)NC2=O)c2ccc(NCCCN3CCN(c4cccc(-c5cnc6ccc(N7CCC[C@@H]7c7cccc(F)c7)nn56)n4)CC3)cc21` (stereo partly drawn) [TR-221, 3-[5-[3-[4-[6-[6-[(2R)-2-(3-fluorophenyl)pyrrolidin-1-yl]imidazo[1,2-b]pyridazin-3-yl]-2-pyridyl]piperazin-1-yl]propylamino]-3-methyl-2-oxo-benzimidazol-1-yl]piperidine-2,6-dione]: the 50% inhibitory concentration (IC50) in the test on KM12 cells (setting [1]) amounted to 7.8 nM. In addition, the percent degradation of TPM3-TRKA protein at 0.01 µM at TPM3-TRKA fusion protein (setting [2]) was above 80%.
For `O=C1CCC(N2C(=O)c3ccc(N4CCC(CN5CCN(c6cccc(-c7cnc8ccc(N9CCC[C@@H]9c9cccc(F)c9)nn78)n6)CC5)C4)cc3C2=O)C(=O)N1` (stereo partly drawn) [TR-225, 2-(2,6-dioxopiperidin-3-yl)-5-(3-((4-(6-(6-((R)-2˜ (3-fluorophenyl)pyrrolidin-1-yl)imidazo[1,2-b]pyridazin-3-yl)pyridin-2-yl)piperazin-1-yl)methyl)pyrrolidin-1-yl)isoindoline-1,3-dione] the same measures were 8.4 nM and above 80%.
For `O=C1CCC(n2c(=O)n(CCN3CCN(c4cccc(-c5cnc6ccc(N7CCC[C@@H]7c7cccc(F)c7)nn56)n4)CC3)c3ccccc32)C(=O)N1` (stereo partly drawn) [TR-227, 3-(3-(2-(4-(6-(6-((R)-2-(3-Fluorophenyl)pyrrolidin-1-yl)imidazo[1,2-b]pyridazin-3-yl)pyridin-2-yl)piperazin-1-yl)ethyl)-2-oxo-2,3-dihydro-1H-benzo[d]imidazol-1-yl)piperidine-2,6-dione] the same measures were 23.6 nM and 50 to 80%.
For `O=C1CCC(n2c(=O)n(CCCN3CCN(c4cccc(-c5cnc6ccc(N7CCC[C@@H]7c7cccc(F)c7)nn56)n4)CC3)c3ccccc32)C(=O)N1` (stereo partly drawn) [TR-228, 3-(3-(3-(4-(6-(6-((R)-2-(3-fluorophenyl)pyrrolidin-1-yl)imidazo[1,2-b]pyridazin-3-yl)pyridin-2-yl)piperazin-1-yl)propyl)-2-oxo-2,3-dihydro-1H-benzo[d]imidazol-1-yl)piperidine-2,6-dione] the same measures were 56.3 nM and 50 to 80%.
On to `O=C1CCC(N2C(=O)c3ccc(NC(=O)CN4CCN(c5cccc(-c6cnc7ccc(N8CCC[C@@H]8c8cccc(F)c8)nn67)n5)CC4)cc3C2=O)C(=O)N1` (stereo partly drawn) [TR-233, N-(2-(2,6-dioxopiperidin-3-yl)-1,3-dioxoisoindolin-5-yl)-2-(4-(6-(6-((R)-2-(3-fluorophenyl)pyrrolidin-1-yl)imidazo[1,2-b]pyridazin-3-yl)pyridin-2-yl)piperazin-1-yl)acetamide], for which the IC50 in the test with KM12 cells (setting [1]) turned out to be 5 nM. In addition, the percent degradation of TPM3-TRKA protein at 0.01 µM at TPM3-TRKA fusion protein (setting [2]) is above 80%.
In the same order, the values of `O=C1CCC(N2C(=O)Cc3c(NCCN4CCN(c5cccc(-c6cnc7ccc(N8CCC[C@@H]8c8cccc(F)c8)nn67)n5)CC4)cccc32)C(=O)N1` (stereo partly drawn) [TR-236, 3-(4-((2-(4-(6-(6-((R)-2-(3-Fluorophenyl)pyrrolidin-1-yl)imidazo[1,2-b]pyridazin-3-yl)pyridin-2-yl)piperazin-1-yl)ethyl)amino)-2-oxoindolin-1-yl)piperidine-2,6-dione] are 99.2 nM and below 50%.
On to `O=C1CCC(N2C(=O)c3ccc(CN4CC(N5CCN(c6cccc(-c7cnc8ccc(N9CCC[C@@H]9c9cccc(F)c9)nn78)n6)CC5)C4)cc3C2=O)C(=O)N1` (stereo partly drawn) [TR-237, 2-(2,6-dioxopiperidin-3-yl)-5-((3-(4-(6-(6-((R)-2-(3-fluorophenyl)pyrrolidin-1-yl)imidazo[1,2-b]pyridazin-3-yl)pyridin-2-yl)piperazin-1-yl)azetidin-1-yl)methyl)isoindoline-1,3-dione], for which the IC50 in the test with KM12 cells (setting [1]) is 138 nM. Moreover, the percent degradation of TPM3-TRKA protein at 0.01 µM on TPM3-TRKA fusion protein (setting [2]) is above 80%.
In the case of `Cn1c(=O)n(C2CCC(=O)NC2=O)c2cccc(C#CCN3CCN(c4cccc(-c5cnc6ccc(N7CCC[C@@H]7c7cccc(F)c7)nn56)n4)CC3)c21` (stereo partly drawn) [TR-238, 3-(4-(3-(4-(6-(6-((R)-2-(3-Fluorophenyl)pyrrolidin-1-yl)imidazo[1,2-b]pyridazin-3-yl)pyridin-2-yl)piperazin-1-yl)prop-1-yn-1-yl)-3-methyl-2-oxo-2,3-dihydro-1H-benzo[d]imidazol-1-yl)piperidine-2,6-dione], the half-inhibitory concentration (IC50) in the test with KM12 cells (KM12, 72 h) was 16.2 nM. Further, the percent degradation of TPM3-TRKA protein at 0.01 µM on TPM3-TRKA fusion protein (KM12, 16 h) was above 80%.
Consider `Cn1c(=O)n(C2CCC(=O)NC2=O)c2cccc(C#CCCN3CCN(c4cccc(-c5cnc6ccc(N7CCC[C@@H]7c7cccc(F)c7)nn56)n4)CC3)c21` (stereo partly drawn) [TR-239, 3-(4-(4-(4-(6-(6-((R)-2-(3-Fluorophenyl)pyrrolidin-1-yl)imidazo[1,2-b]pyridazin-3-yl)pyridin-2-yl)piperazin-1-yl)but-1-yn-1-yl)-3-methyl-2-oxo-2,3-dihydro-1H-benzo[d]imidazol-1-yl)piperidine-2,6-dione], for which the IC50 in the test on KM12 cells (setting [1]) was 45.9 nM. Moreover, the percent degradation of TPM3-TRKA protein at 0.01 µM at TPM3-TRKA fusion protein (setting [2]) was above 80%.
In the same order, the values of `Cn1c(=O)n(C2CCC(=O)NC2=O)c2cccc(CCCN3CCN(c4cccc(-c5cnc6ccc(N7CCC[C@@H]7c7cccc(F)c7)nn56)n4)CC3)c21` (stereo partly drawn) [TR-240, 3-(4-(3-(4-(6-(6-((R)-2-(3-fluorophenyl)pyrrolidin-1-yl)imidazo[1,2-b]pyridazin-3-yl)pyridin-2-yl)piperazin-1-yl)propyl)-3-methyl-2-oxo-2,3-dihydro-1H-benzo[d]imidazol-1-yl)piperidine-2,6-dione] are 16.1 nM and above 80%.
As to `Cn1c(=O)n(C2CCC(=O)NC2=O)c2cccc(CCCCN3CCN(c4cccc(-c5cnc6ccc(N7CCC[C@@H]7c7cccc(F)c7)nn56)n4)CC3)c21` (stereo partly drawn) [TR-241, 3-(4-(4-(4-(6-(6-((R)-2˜ (3-fluorophenyl)pyrrolidin-1-yl)imidazo[1,2-b]pyridazin-3-yl)pyridin-2-yl)piperazin-1-yl)butyl)-3-methyl-2-oxo-2,3-dihydro-1H-benzo[d]imidazol-1-yl)piperidine-2,6-dione], the IC50 in the test on KM12 cells (KM12, 72 h) came out at 6.1 nM. Further, the percent degradation of TPM3-TRKA protein at 0.01 µM at TPM3-TRKA fusion protein (KM12, 16 h) was above 80%.
`Cn1c(=O)n(C2CCC(=O)NC2=O)c2cccc(OCCN3CCN(c4cccc(-c5cnc6ccc(N7CCC[C@@H]7c7cccc(F)c7)nn56)n4)CC3)c21` (stereo partly drawn) [TR-244, 3-(4˜ (2-(4-(6-(6-((R)-2-(3-Fluorophenyl)pyrrolidin-1-yl)imidazo[1,2-b]pyridazin-3-yl)pyridin-2-yl)piperazin-1-yl)ethoxy)-3-methyl-2-oxo-2,3-dihydro-1H-benzo[d]imidazol-1-yl)piperidine-2,6-dione]: the IC50 in the test with KM12 cells (setting [1]) was 298 nM. Further, the percent degradation of TPM3-TRKA protein at 0.01 µM at TPM3-TRKA fusion protein (setting [2]) is below 50%.
In the same order, the values of `Cn1c(=O)n(C2CCC(=O)NC2=O)c2ccc(OCCN3CCN(c4cccc(-c5cnc6ccc(N7CCC[C@@H]7c7cccc(F)c7)nn56)n4)CC3)cc21` (stereo partly drawn) [TR-246, 3-(5-(2-(4-(6-(6-((R)-2-(3-Fluorophenyl)pyrrolidin-1-yl)imidazo[1,2-b]pyridazin-3-yl)pyridin-2-yl)piperazin-1-yl)ethoxy)-3-methyl-2-oxo-2,3-dihydro-1H-benzo[d]imidazol-1-yl)piperidine-2,6-dione] are 101 nM and above 80%.
In the same order, the values of `O=C1CCC(n2c(=O)oc3c(NCCN4CCN(c5cccc(-c6cnc7ccc(N8CCC[C@@H]8c8cccc(F)c8)nn67)n5)CC4)cccc32)C(=O)N1` (stereo partly drawn) [TR-247, 3-(7-((2-(4-(6-(6-((R)-2-(3-Fluorophenyl)pyrrolidin-1-yl)imidazo[1,2-b]pyridazin-3-yl)pyridin-2-yl)piperazin-1-yl)ethyl)amino)-2-oxobenzo[d]oxazol-3 (2H)-yl)piperidine-2,6-dione] are 8.2 nM and above 80%.
As to `O=C1CCC(N2C(=O)c3ccc(CN4CC(CN5CCN(c6cccc(-c7cnc8ccc(N9CCC[C@@H]9c9cccc(F)c9)nn78)n6)CC5)C4)cc3C2=O)C(=O)N1` (stereo partly drawn) [TR-248, 2-(2,6-Dioxopiperidin-3-yl)-5-((3-((4-(6-(6-((R)-2-(3-fluorophenyl)pyrrolidin-1-yl)imidazo[1,2-b]pyridazin-3-yl)pyridin-2-yl)piperazin-1-yl)methyl)azetidin-1-yl)methyl)isoindoline-1,3-dione], the IC50 in the test with KM12 cells (setting [1]) came to 27.4 nM. Moreover, at TPM3-TRKA fusion protein (setting [2]), the percent degradation of TPM3-TRKA protein at 0.01 µM is above 80%.
For `O=C1CCC(N2C(=O)c3ccc(CN4CC(CN5CCN(c6ccc(C(=O)Nc7n[nH]c8ccc(Cc9cc(F)cc(F)c9)cc78)c(NC7CCOCC7)c6)CC5)C4)cc3C2=O)C(=O)N1` (stereo not shown) [TR-249, N-(5-(3,5-difluorobenzyl)-1H-indazol-3-yl)-4-(4-((1-((2-(2,6-dioxopiperidin-3-yl)-1,3-dioxoisoindolin-5-yl)methyl)azetidin-3-yl)methyl)piperazin-1-yl)-2-((tetrahydro-2H-pyran-4-yl)amino)benzamide] the same measures were 15.1 nM and above 80%.
